Results on 21 molecules are retold here after patent publication US5444084A, “Substituted heterocyclic derivative having squalene epoxidase inhibition action and its use” (Banyu Pharmaceutical Co., Ltd., priority 1992, dated 1995).

Experiment [1] concerns cholesterol biosynthesis. The experiment in a line: Inhibition test of in vivo cholesterol biosynthesis in rat. Further details: species or system rat (female SD). To be noted: 3 mg/kg oral, n = 5, rat; for 14C-cholesterol, dpm: dpm of produced 14C-cholesterol in 1 ml of plasma, control values 2282-3218 dpm; for Cholesterol biosynthesis inhibition rate: versus control group. The procedure: Inhibition test of in vivo cholesterol biosynthesis
In this in vivo test, female SD rats (5 weeks old) are used. The rats are raised for 9 days under an environment where illumination is applied with reversed day and night (dark from 6 a.m. to 6 p.m.), and meanwhile they can freely ingest a solid feed and water. A test chemical is orally administered two hours before dark 6 o'clock when cholesterol biosynthesis becomes maximum. The compound is dissolved in a middle-chain fatty acid triglyceride, and orally administered at 3 mg/kg in an amount of 0.5 ml/100 g body weight. Further, the same volume of the solvent (vehicle) used is administered to control animals. […] after the administration of the test chemical, 20μ Ci/100 g body weight of ^14 C-sodium acetate (56 m Ci/m mole) is intraperitoneally administered to the rats, respectively. At dark 6 o'clock blood is sampled from the abdominal artery of each animal under ether anesthesia and centrifuged to separate the plasma.
2 ml of 15% potassium hydroxide-methanol solution is added per ml of the plasma, and the mixture is heated at 75° C. for 3 hours to carry out saponification. Each sample is extracted twice, each time with 2 ml of petroleum ether, and the extract is washed with 2 ml of distilled water. Finally each extract is evaporated to dryness under a nitrogen stream.
The resultant residue is dissolved in a small amount of ethyl ether, and a pre-coated silica gel TLC is spotted with the total amount of the solution. This plate is developed with a solvent system of hexane/ethyl ether/acetic acid (85:15:4). Coloring is carried out with iodine, and radioactivity at the cholesterol part is assayed using a liquid scintillation counter.
The results (Table 2) are expressed by dpm values of produced ^14 C-cholesterol existing in 1 ml of each plasma. Further, the inhibition of cholesterol biosynthesis is calculated by comparing the amounts of ^14 C-cholesterol biosynthesis between the test groups and the control group.

The target of experiment [2] is T1, Human squalene epoxidase (Homo sapiens, UniProt Q14534).
T1 construct: The resultant supernatant is used as the squalene epoxidase fraction in the later-described test; endogenous in cells; host or cells: Hep-G2 human hepatoma cells (microsomes solubilized with Triton X-100)
The experiment in a line: Human squalene epoxidase inhibition action. To be noted: solubilized Hep-G2 microsome fraction, 8 μM 3H-squalene, 37° C., 60 minutes, read-out: Inhibition rate at 3 μM concentration. The experiment is classed as biochemical. The procedure:
Squalene epoxidase inhibition action
(1) Preparation of squalene epoxidase
Human squalene epoxidase is prepared in accordance with the process disclosed in J. Biol. Chem., 245, 1670 (1970); ibid., 250, 1572 (1975).
Namely, human hepatoma (Hep-G2) cells are cultured at 37° C. under air containing 5% carbon dioxide. After completion of the culture, the cells are scraped and collected by centrifugation. The cells are suspended in 0.1M Tris-HCl buffer (pH 7.5) (1×10^8 cells/ml), the suspension is homogenized and centrifuged at 9750 Xg for 10 minutes, and then the sediment is washed with 0.1M Tris-HCl buffer (pH 7.5) and centrifuged at 105,000 Xg for 1 hour. The resultant microsome is suspended in 0.1M Tris-HCl buffer (pH 7.5) so that the protein amount becomes 20 mg/ml, and solubilized by stirring the suspension under ice cooling in the presence of 1% Triton X-100. After this solubilization treatment, the concentration of Triton X-100 is diluted to 0.125% with 1 mM EDTA and 1 mM dithiothreitol, and the dilution is centrifuged at 105,000 Xg for 1 hour. The resultant supernatant is used as the squalene epoxidase fraction in the later-described test.
(2) Assay of squalene epoxidase activity
Assay of human squalene epoxidase activity is carried out according to the method disclosed in J. Biol. Chem., 245, 1670 (1970).
Namely, 3 μl of a dimethyl sulfoxide solution of a test chemical is added to a solution consisting of 0.2 ml of the squalene epoxidase fraction [protein amount 0.4 mg, 0.1% Triton X-100, […] Tris-HCl buffer (pH 7.5)] prepared in (1), 100 μM FAD, 1 mM NADPH, 1 mM EDTA and 8 μM ^3 H-squalene-Tween 80 suspension to make the total volume 0.3 ml, and the mixture is subjected to reaction with shaking at 37° C. for 60 minutes. 0.3 ml of 10% potassium hydroxide-methanol solution is added to discontinue the reaction, and the mixture is heated at 75° C. for 1 hour. Then the non-saponified substance is extracted with petroleum ether and the extract is concentrated to dryness under a nitrogen stream. The resultant residue is dissolved in a small amount of ethyl ether, pre-coated Silicagel TCL is spotted with the extract, and development is carried out with benzeneethyl acetate (99.5:0.5). The position of the ^3 H-squalene-2,3 -epoxide in the TLC is confirmed using ergosterol acetate as a marker, and the ^3 H-squalene-2,3-epoxide portion in the TLC is cut out. The TLC piece is immersed in a toluene series scintillator and measurement is made using a liquid scintillation counter. Thereby, the inhibition rates (%) against squalene epoxidase at 3 μM concentration of compounds of this invention are determined, and the results are shown in the following Table 1.

T1 sequence (Q14534 whole entry): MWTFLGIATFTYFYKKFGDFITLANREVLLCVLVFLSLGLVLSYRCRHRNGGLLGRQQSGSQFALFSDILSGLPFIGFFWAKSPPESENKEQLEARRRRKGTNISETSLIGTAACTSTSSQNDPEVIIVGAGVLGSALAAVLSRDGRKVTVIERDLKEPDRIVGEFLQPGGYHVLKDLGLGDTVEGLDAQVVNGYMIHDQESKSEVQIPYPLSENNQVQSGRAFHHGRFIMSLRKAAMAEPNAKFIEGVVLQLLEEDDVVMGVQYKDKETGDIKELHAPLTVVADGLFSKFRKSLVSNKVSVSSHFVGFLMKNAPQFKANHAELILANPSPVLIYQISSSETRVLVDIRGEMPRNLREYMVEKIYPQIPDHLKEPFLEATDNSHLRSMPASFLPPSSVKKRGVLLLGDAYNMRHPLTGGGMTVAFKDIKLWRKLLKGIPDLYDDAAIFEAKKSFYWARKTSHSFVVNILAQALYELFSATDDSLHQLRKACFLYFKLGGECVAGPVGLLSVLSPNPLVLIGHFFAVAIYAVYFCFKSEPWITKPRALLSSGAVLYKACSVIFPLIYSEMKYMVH

For `CC(C)(C)C#C/C=C/C/C(=C\CCC/C=C/c1cccc(-c2ccsc2)c1)CO` [Example 1], in experiment [1], the “14C-cholesterol, dpm” value came to 275 dpm and the “Cholesterol biosynthesis inhibition rate” value was determined as 91%. Besides, the inhibition at 3 µM in experiment [2] came out at 100%. For `COC/C(=C/c1cccc(OCc2cc(-c3ccsc3)cs2)c1)C/C=C/C#CC(C)(C)C` [Example 33, (E,E)-2-[3-(2-methoxymethyl-8,8-dimethylnona-1,4-dien-6-ynyl)phenoxymethyl]-4-(3-thienyl)thiophene], the inhibition at 3 µM in experiment [2] turned out to be 100%. As to `COC/C(=C/CCCCOc1cccc(-c2ccsc2)c1)C/C=C/C#CC(C)(C)C` [Example 30, (E,E)-3-[3-(6-methoxymethyl-12,12-dimethyltrideca-5,8-dien-10-ynyloxy)phenyl]thiophene], the inhibition at 3 µM in experiment [2] worked out at 100%. Regarding `COCC(C/C=C/C#CC(C)(C)C)Cc1cccc(OCc2cccc(-c3ccsc3)c2)c1` (centres unmarked) [Example 32, (E)-3-[3-[3-(2-methoxymethyl-8,8-dimethyl-4-nonen-6-ynyl)phenoxymethyl]phenyl]thiophene], the inhibition at 3 µM in experiment [2] worked out at 100%. Take `C/C(=C/c1cccc(OCc2cc(-c3ccsc3)cs2)c1)C/C=C/C#CC(C)(C)C` [Example 22, 2-[3-[(1Z,4E)-2,8,8-trimethylnona-1,4-dien-6-ynyl]phenoxymethyl]-4-(3-thienyl)thiophene]: the inhibition at 3 µM in experiment [2] stood at 100%.

On to `C/C(=C/c1cccc(/C=C/c2cccc(-c3ccsc3)c2)c1)C/C=C/C#CC(C)(C)C` [Example 23, 3-[3-[2-[3-[(1Z,4E)-2,8,8-trimethylnona-1,4-dien-6-ynyl]phenyl]ethenyl]phenyl]thiophene], for which the inhibition at 3 µM in experiment [2] came to 100%. On to `CC(O)C(C/C=C/C#CC(C)(C)C)Cc1cccc(/C=C/c2cccc(-c3ccsc3)c2)c1` (centres unmarked) [Example 43, (E,E)-3-(6,6-dimethyl-2-hepten-4-ynyl)-4-[3-[2-[3-(3-thienyl)phenyl]ethenyl]phenyl]-2-butanol], for which the inhibition at 3 µM in experiment [2] came to 100%.

Take `CC(C)(C)C#C/C=C/C/C(=C\c1cccc(OCc2cc(-c3ccsc3)cs2)c1)CO` [Example 5, (E,E)-2-(6,6-dimethyl-2-hepten-4-ynyl)-3-[3-[4-(3-thienyl)-2-thienylmethoxy]phenyl]-2-propen-1-ol]: the inhibition at 3 µM in experiment [2] turned out to be 100%.

Take `COC/C(=C/c1cccc(CCc2cccc(-c3ccsc3)c2)c1)C/C=C/C#CC(C)(C)C` [Example 38, (E,E)-3-[3-[2-[3-(2-methoxymethyl-8,8-dimethylnona-1,4-dien-6-ynyl)phenyl]ethyl]phenyl]thiophene]: in experiment [1], the “14C-cholesterol, dpm” value was found to be 350 dpm and the “Cholesterol biosynthesis inhibition rate” value was determined as 85%. For the same molecule, in experiment [2], the inhibition at 3 µM came to 100%.

Take `COC/C(=C/CCC/C=C/c1cccc(-c2ccsc2)c1)C/C=C/C#CC(C)(C)C` [Example 29, (E,E,E)-3-[3-(7-methoxymethyl-13,13-dimethyltetradeca-1,6,9-trien-11-ynyl)phenyl]thiophene]: the inhibition at 3 µM in experiment [2] was determined as 100%. As to `CSC/C(=C/CCCCOc1cccc(-c2ccsc2)c1)C/C=C/C#CC(C)(C)C` [Example 42, (E,E)-3-[3-(12,12-dimethyl-6-methylthiomethyltrideca-5,8-dien-10-ynyloxy)phenyl]thiophene], the inhibition at 3 µM in experiment [2] was 100%. For `COC(C)(C)C#C/C=C/C/C(=C\c1cccc(/C=C/c2cccc(-c3ccsc3)c2)c1)CO` [Example 8, (E,E,E)-2-(6-methoxy-6-methyl-2-hepten-4-ynyl)-3-[3-[2-[3-(3-thienyl)phenyl]ethenyl]phenyl]-2-propen-1-ol], the inhibition at 3 µM in experiment [2] came out at 100%. As to `CC(C)(C)C#C/C=C/CC(CO)Cc1cccc(/C=C/c2cccc(-c3ccsc3)c2)c1` (centres unmarked) [Example 12, (E,E)-2-(6,6-dimethyl-2-hepten-4-ynyl)-3-[3-[2-[3-(3-thienyl)phenyl]ethenyl]phenyl]propanol], in experiment [1], the “14C-cholesterol, dpm” value stood at 1208 dpm and the “Cholesterol biosynthesis inhibition rate” value is given as 61%. Further, the inhibition at 3 µM in experiment [2] came out at 100%. For the molecule `CC(C)(C)C#C/C=C/CC(CO)Cc1cccc(OCc2cccc(-c3ccsc3)c2)c1` (centres unmarked) [Example 11, (E)-2-(6,6-dimethyl-2-hepten-4-ynyl)-3-[3-[3-(3-thienyl)phenylmethoxy]phenyl]propanol], the inhibition at 3 µM in experiment [2] is 88%.

For the molecule `CC(C)(C)C#C/C=C/C/C(=C\c1cccc(/C=C/c2cccc(-c3ccsc3)c2)c1)CO` [Example 6, (E,E,E)-2-(6,6-dimethyl-2-hepten-4-ynyl)-3-[3-[2-[3-(3-thienyl)phenyl]ethenyl]phenyl]-2-propen-1-ol], in experiment [1], the “14C-cholesterol, dpm” value turned out to be 871 dpm and the “Cholesterol biosynthesis inhibition rate” value turned out to be 73%. Also, the inhibition at 3 µM in experiment [2] is 100%. Turning to `C=CC(C/C=C/C#CC(C)(C)C)Cc1cccc(/C=C/c2cccc(-c3ccsc3)c2)c1` (centres unmarked) [Example 44], in experiment [2], the inhibition at 3 µM was 100%. Turning to `CC(C)(C)C#C/C=C/C/C(=C\c1cccc(COc2cccc(-c3ccsc3)c2)c1)CO` [Example 4, (E,E)-2-(6,6-dimethyl-2-hepten-4-ynyl)-3-[3-[3-(3-thienyl)phenoxymethyl]phenyl]-2-propen-1-ol], the inhibition at 3 µM in experiment [2] was 100%.

On to `CC(C)(C)C#C/C=C/C/C(=C\CCCCOc1cccc(-c2ccsc2)c1)CO` [Example 2, (E,E)-2-(6,6-dimethyl-2-hepten-4-ynyl)-7-[3-(3-thienyl)phenoxy]-2-hepten-1-ol], for which the inhibition at 3 µM in experiment [2] is 100%. On to `C/C(=C/CCC/C=C/c1cccc(-c2ccsc2)c1)C/C=C/C#CC(C)(C)C` [Example 18, 3-[3-[(1E,6Z,9E)-7,13,13-trimethyltetradeca-1,6,9-trien-11-ynyl]phenyl]thiophene], for which, in experiment [2], the inhibition at 3 µM is 99%. For `C/C(=C/c1cccc(COc2cccc(-c3ccsc3)c2)c1)C/C=C/C#CC(C)(C)C` [Example 21, 3-[3-[3-[(1Z,4E)-2,8,8-trimethylnona-1,4-dien-6-ynyl]phenylmethoxy]phenyl]thiophene], in experiment [2], the inhibition at 3 µM is 100%. Turning to `COC(C)(C)C#CC#CC/C(=C\c1cccc(/C=C/c2cccc(-c3ccsc3)c2)c1)CO` [Example 10, (E,E)-2-(6-methoxy-6-methyl-2,4-heptadiynyl)-3-[3-[2-[3-(3-thienyl)phenyl]ethenyl]phenyl]-2-propen-1-ol], in experiment [2], the inhibition at 3 µM is 100%.
